Measurements: paper PMC5652320 (ACS chemical biology, 2017)
One block for each compound: values may come before it.

How the values were obtained:
His-PPARγ LBD = biological target: T1, His-PPARγ LBD (Homo sapiens, UniProt P37231); assay type: biochemical; settings: TRAP220 coactivator peptide
T1 sequence (P37231 203-477 isoform P37231-2): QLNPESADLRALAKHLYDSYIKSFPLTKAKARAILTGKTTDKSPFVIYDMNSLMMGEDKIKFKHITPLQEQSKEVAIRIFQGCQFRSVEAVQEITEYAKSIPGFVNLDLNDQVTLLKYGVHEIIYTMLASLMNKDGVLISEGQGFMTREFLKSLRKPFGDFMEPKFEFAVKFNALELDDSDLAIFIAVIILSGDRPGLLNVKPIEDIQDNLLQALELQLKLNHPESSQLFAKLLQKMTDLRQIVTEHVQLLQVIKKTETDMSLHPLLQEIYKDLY

[1] = limited use of MRL20 concentrations to 30 μM in assays; cited from earlier work
full-length PPARγ = biological target: T2, full-length PPARγ (Homo sapiens, UniProt P37231); assay: Full-length PPARγ/5xPPRE-luciferase reporter assay in HEK293T cells; assay type: cell-based; settings: covalent analog ± 5 μM MRL20
T2 sequence (P37231 1-505): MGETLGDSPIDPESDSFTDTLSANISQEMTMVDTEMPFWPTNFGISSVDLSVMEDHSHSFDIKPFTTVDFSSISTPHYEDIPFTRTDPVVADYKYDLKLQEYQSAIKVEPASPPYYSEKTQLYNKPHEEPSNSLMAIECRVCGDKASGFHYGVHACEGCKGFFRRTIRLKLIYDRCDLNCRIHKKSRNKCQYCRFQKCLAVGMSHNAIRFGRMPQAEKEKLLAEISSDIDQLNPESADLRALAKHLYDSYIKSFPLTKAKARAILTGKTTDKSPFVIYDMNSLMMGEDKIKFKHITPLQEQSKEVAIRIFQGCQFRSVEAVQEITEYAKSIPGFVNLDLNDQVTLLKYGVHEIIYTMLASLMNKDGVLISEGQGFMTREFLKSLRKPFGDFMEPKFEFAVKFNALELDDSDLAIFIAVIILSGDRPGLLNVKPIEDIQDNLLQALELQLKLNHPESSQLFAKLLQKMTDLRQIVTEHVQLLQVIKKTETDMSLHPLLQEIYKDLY

TR-FRET response to rosiglitazone with covalent antagonist-bound PPARγ LBD (His-PPARγ LBD; rosiglitazone titration, endpoint 300 μM): lower but not blocked
SMILES: O=C(Nc1ccccc1)c1cc([N+](=O)[O-])ccc1Cl [GW9662]

SMILES: COc1ccc(C(=O)n2c(C)c(Cc3ccccc3O[C@@H](C)C(=O)O)c3cc(OC(F)(F)F)ccc32)cc1 [MRL20]
Solubility [1]: solubility issues

SMILES: COc1ccc2nccc(NC(=O)c3cc([N+](=O)[O-])ccc3Cl)c2c1 [compound 22]
Effect of covalent antagonist on binding of DHA to PPARγ (His-PPARγ LBD; DHA dose response and 30 μM endpoint): reduced binding of DHA to PPARγ better than GW9662 and T0070907
Inhibition of allosteric activation of full-length PPARγ by MRL20 (full-length PPARγ): inhibition of allosteric PPARγ activation
